For one assay, the system named is 3CL^Pro. The conditions noted are these: read-out: IC50 against 3CL^Pro; lead compound; cited from earlier work.
Assay [1] has as its system SARS-CoV-2. The arrangement: method as in PMID 32198291. The conditions noted are these: Calu-3 cell line; read-out: EC50 (viral RNA copies); cited from earlier work.
Assay [2] has as its system SARS-CoV-2. The conditions noted are these: co-administration of PF07321332 and Ritonavir, oral, phase II/III trials; cited from earlier work.
A further assay addresses SARS-CoV 3CL^Pro (Severe acute respiratory syndrome coronavirus, UniProt P0C6X7). The assay can be described thus: biochemical.
The next assay deals with SARS-CoV-2 3CL^Pro (Severe acute respiratory syndrome coronavirus 2, UniProt P0DTD1). The assay can be described thus: FRET-based 3CLPro enzymatic inhibition assay (SARS-CoV-2). The assay is classed as biochemical. Particulars: 0.2 μM enzyme, mean ± SE, n = 3.
Assay [3] has as its system SARS-CoV-2. The assay can be described thus: SARS-CoV-2 infection assay in Vero E6 cells, viral RNA by qPCR. The assay is classed as cell-based. Particulars: final concentration 10 μM, initial screen. For orientation: Real-time PCR tracks product formation cycle by cycle.

Data on seven compounds can be found in paper PMC8878928 (International Journal of Molecular Sciences, 2022).

For orientation: IC50 means the concentration at which inhibition is half-maximal. As a reminder, the EC50 is the concentration needed to bring the measured effect to its halfway point.

On to `CC(C)(C)OC(=O)Nc1cccn([C@@H](CC2CC2)C(=O)N[C@@H](C[C@@H]2CCNC2=O)C(=O)C(=O)NCc2ccccc2)c1=O` [13b], for which the IC50 in the assay with 3CL^Pro is 670 ± 180 nM. For the same compound, the EC50 in the assay with SARS-CoV-2 [1] is 4000 to 5000 nM.
As to `CC(C)(C)[C@H](NC(=O)C(F)(F)F)C(=O)N1C[C@H]2[C@@H]([C@H]1C(=O)N[C@H](C#N)C[C@@H]1CCNC1=O)C2(C)C` [PF-07321332], the “Reduction of overall hospitalizations” value with SARS-CoV-2 [2] is given as 89%.
Take `CC(C)C[C@H](NC(=O)[C@@H](NC(=O)C1CCCCC1)C(C)C)C(=O)N[C@H](C=O)C[C@@H]1CCCNC1=O` [TPM1]: the IC50 against SARS-CoV 3CL^Pro was found to be 479 ± 29 nM; on SARS-CoV-2 3CL^Pro it was 241 ± 0.5 nM.
For `CC(C)C[C@H](NC(=O)[C@@H](NC(=O)c1ccco1)C(C)C)C(=O)N[C@H](C=O)C[C@@H]1CCCNC1=O` [TPM5] the same measures were 134 ± 1 nM and 59 ± 2 nM.
For `COc1ccc(/C=C/C(=O)N[C@H](C(=O)N[C@@H](CC(C)C)C(=O)N[C@H](C=O)C[C@@H]2CCCNC2=O)C(C)C)cc1` [TPM10] the same measures were 231 ± 4 nM and 80 ± 2 nM.
Turning to `CC(C)C[C@H](NC(=O)[C@H](Cc1ccccc1)NC(=O)/C=C/c1ccccc1)C(=O)N[C@H](C=O)C[C@@H]1CCCNC1=O` [TPM16], in the assay on SARS-CoV-2 [3], the “Reduction of RNA loads of SARS-CoV-2 (relative level to DMSO control)” value is reported as 10^3. The IC50 is 232 ± 1 nM against SARS-CoV 3CL^Pro and 166 ± 2 nM against SARS-CoV-2 3CL^Pro.
For `CC[C@H](C)[C@H](NC(=O)/C=C/c1ccccc1)C(=O)N[C@H](C=O)C[C@@H]1CCCNC1=O` [TPM19] the same measures were 10^3, 1220 ± 312 nM and 1060 ± 31 nM.
